Laboratory results taken from patent publication US9149478B2, “Diabetes therapy” (Boehringer Ingelheim International GmbH, priority 2010, dated 2015).

Tests used:
[1] = in vivo; cited from earlier work
[2] = Pharmacokinetics of BI 1356 after multiple oral doses once daily for 12 days in patients with type 2 diabetes; conditions: for feτ,ss: steady state (Day 12); for feτ,ss / fe0-24: gMean (gCV); for fe0-24: fraction excreted in urine
[3] = Pharmacokinetic profile of linagliptin (general statement); conditions: in vivo
[4] = Safety and tolerability in people with type 2 diabetes
[5] = tested on: non-obese-diabetic (NOD) mice; experiment: Onset of diabetes and stereological pancreas assessment in NOD mice over 60 days; type: in vivo, mouse; conditions: female NOD mice
Excerpt: Though reduced pancreatic T-cell migration and altered cytokine production is considered important players for the onset of insulinitis the exact mechanism and effects on the pancreatic cell pool is still incompletely understood.
Bi-weekly plasma samples are obtained to determine onset of diabetes (BG>11 mmol/l).

| feτ,ss ([2]; 1 mg oral once daily) | feτ,ss ([2]; 2.5 mg oral once daily) | fe0-24 ([2]; 2.5 mg oral once daily) | feτ,ss ([2]; 5 mg oral once daily) | fe0-24 ([2]; 5 mg oral once daily) | feτ,ss ([2]; 10 mg oral once daily) | fe0-24 ([2]; 10 mg oral once daily) | mean accumulation ratio RA,AUC ([2]; doses above 1 mg, oral once daily) | excreted via the kidney ([2]; therapeutic oral dose levels) | half-life [3] | Compound | duration of action [1] | route of excretion ([2]; therapeutic oral dose levels) | safety and tolerability [4] | incidence of diabetes (BG>11 mmol/l) at the end of the study period ([5]; 0.083 g linagliptin/kg chow (3-10 mg/kg p.o.), 60 days) | beta cell mass (insulin immunoreactivity) ([5]; linagliptin in chow, 60 days, stereology) | active plasma GLP-1 at termination ([5]; linagliptin in chow, versus control) |
| --- | --- | --- | --- | --- | --- | --- | --- | --- | --- | --- | --- | --- | --- | --- | --- | --- |
|  |  |  |  |  |  |  |  |  |  | N^εB29-(N^α-(ω-carboxypentadecanoyl)-L-γ-glutamyl) des(B30) human insulin [Insulin degludec] | more than 24 hours |  |  |  |  |  |
| 3.34 (38.3) % | 3.06 (45.1) % | 0.139 (51.2) % | 6.27 (42.2) % | 0.453 (125) % | 3.22 (34.2) % | 0.919 (115) % | ≤ 1.4 | < 7 % of the administered oral dose | ≤ 72 h | CC#CCn1c(N2CCC[C@@H](N)C2)nc2c1c(=O)n(Cc1nc(C)c3ccccc3n1)c(=O)n2C [BI 1356, 1-[(4-methyl-quinazolin-2-yl)methyl]-3-methyl-7-(2-butyn-1-yl)-8-(3-(R)-amino-piperidin-1-yl)-xanthine] |  | primarily excreted unchanged via the bile | placebo-like safety and tolerability | 9 out of 30 | 0.48 ± 0.09 mg | higher |
